The results in this text go back to US20060205640A1, “Papillosin antimicrobial peptide, a gene coding said peptide, a vector, a transformed organism and a compound containing said organism” (priority 2003, published 2006).

No end group written: not given here.

In one experiment the test system is E. coli. Format: cell-based. To be noted: gram-negative bacteria, 18 hours incubation, Mueller Hinton. As to the method:
(§1) Complementary tests were carried out in order to determine the spectrum of activity of papillosin. The minimal bactericidal concentration (MBC) for each bacterial strain tested is determined as follows: The peptide is placed in a solution containing 0.01% acetic acid and 0.2% bovine serum albumin (BSA), then, serial dilutions of 2 in [sic—and?] 2 are realized in the same 0.01% solution of acetic acid and 0.2% BSA. 10 μl of each dilution are incubated in sterile 96-well plates (Becton Dickinson, USA, ref: 18572) in the presence of 100 μl of a bacterial suspension brought to an optical density of 0.001 at 600 nm in the Mueller Hinton environment (MHB, SIGMA, ref: M-9677).
(§2) The bacterial growth is monitored after 18 hours of incubation under agitation. The MBC is determined by spreading out the content of the first three wells in which no bacterial growth was observed; this spreading out was carried out on Petri dishes on which an agar was poured prepared from the Mueller Hinton environment. These dishes were then incubated 18 hours. The MBC corresponds to the lowest concentration of peptide for which no bacterial colony was observed on the incubated dishes.

Another experiment has as its system S. aureus. It counts as cell-based. To be noted: gram-positive bacteria, 18 hours incubation, Mueller Hinton. As for the experimental part: as §1, §2

For orientation: MBC means the lowest tested concentration that kills the bacteria rather than only halting them. Low readings indicate greater bactericidal potency, high ones weaker bactericidal potency. For “GFWKKVGSAAWGGVKAAAKGAAVGGLNALAKHIQ [papillosin]”, the minimum bactericidal concentration (MBC) against E. coli fell in the range of 0.25 to 0.5 µM; in the experiment with S. aureus, 0.5 to 1 µM.
